Values quoted from earlier work in paper PMC7414093 (Proceedings of the National Academy of Sciences of the …, 2020).
pEC50: −log10 of the molar value. Numbered stars: 1 amine (or outer) side, 2 acyl side, 3 side chain; on linkers, the order of the positions; unused ones are H or OH. Bridge positions count the residues as written; N and C are the ends. Square brackets hold non-standard residues; d marks the D form. Peptide text beside a SMILES is read from it. Phe(3,4-Cl2) = N[C@@H](Cc1ccc(Cl)c(Cl)c1)C(=O)O; X1 = NCCC(=O)N[C@@H](CN[*:2])C(=O)[*:1]; hhPhe = N[C@@H](CCCc1ccccc1)C(=O)O; NMeL = CN[C@@H](CC(C)C)C(=O)O; Orn = NCCC[C@H](N)C(=O)O

Test system: HA
Design: method as in PMID 28971971
Conditions: AlphaLISA, HB80.4 as competitor for HA binding; cited from earlier work

## CC(=O)N[C@@H](CCCc1ccccc1)C(=O)N[C@H]1CCCNC(=O)[C@@H](NC(=O)CCN)CNC(=O)[C@H](CO)NC(=O)[C@H](CC(C)C)NC(=O)[C@H](Cc2c[nH]c3ccccc23)NC(=O)[C@H](CCC(=O)O)NC(=O)[C@H](Cc2ccc(Cl)c(Cl)c2)NC(=O)[C@H](Cc2ccc(O)cc2)NC(=O)[C@H](CCC(=O)O)NC(=O)[C@H](CC(C)C)N(C)C1=O [P7] (Ac-[hhPhe][Orn][NMeL]EY[Phe(3,4-Cl2)]EWLS; linker 2-C via X1)
  pEC50: 7.15 to 7.52
